Laboratory results published in ChEMBL document CHEMBL3792297, “Studies on phenothiazines: New microtubule-interacting compounds with phenothiazine A-ring as potent antineoplastic agents” (Bioorg Med Chem, 2016).

Columns and labels:
[1] = Growth inhibition of human OVCAR5 cells after 48 hrs by SRB assay; format: functional; conditions: OVCAR-5, 48 h
Malme-3M [2] = assay: Growth inhibition of human MALME-3M cells at 10 uM after 48 hrs by SRB assay relative to control; format: functional; conditions: read-out: GI
[3] = Growth inhibition of human RXF393 cells at 10 uM after 48 hrs by SRB assay relative to control; format: functional; conditions: RXF 393, 48 h, read-out: GI
Malme-3M [4] = assay: Growth inhibition of human MALME-3M cells after 48 hrs by SRB assay; format: functional
[5] = Growth inhibition of human OVCAR3 cells at 10 uM after 48 hrs by SRB assay relative to control; format: functional; conditions: OVCAR-3, 48 h, read-out: GI
SN12C = assay: Growth inhibition of human SN12C cells after 48 hrs by SRB assay; format: functional
[6] = Growth inhibition of human MOLT4 cells after 48 hrs by SRB assay; format: functional; conditions: MOLT-4, 48 h
[7] = Growth inhibition of human DU145 cells at 10 uM after 48 hrs by SRB assay relative to control; format: functional; conditions: DU-145, 48 h, read-out: GI
U-251 = assay: Growth inhibition of human U251 cells after 48 hrs by SRB assay; format: functional; conditions: U-251, 48 h
[8] = Growth inhibition of human HOP92 cells at 10 uM after 48 hrs by SRB assay relative to control; format: functional; conditions: HOP-92, 48 h, read-out: GI
[9] = Growth inhibition of human OVCAR5 cells at 10 uM after 48 hrs by SRB assay relative to control; format: functional; conditions: OVCAR-5, 48 h, read-out: GI
NCI-H460 = assay: Growth inhibition of human NCI-H460 cells at 10 uM after 48 hrs by SRB assay relative to control; format: functional; conditions: NCI-H460, 48 h, read-out: GI
[10] = Growth inhibition of human SNB75 cells at 10 uM after 48 hrs by SRB assay relative to control; format: functional; conditions: SNB-75, 48 h, read-out: GI
ACHN [11] = assay: Growth inhibition of human ACHN cells at 10 uM after 48 hrs by SRB assay relative to control; format: functional; conditions: read-out: GI
HT-29 = assay: Growth inhibition of human HT-29 cells at 10 uM after 48 hrs by SRB assay relative to control; format: functional; conditions: HT-29, 48 h, read-out: GI
NCI-H522 = assay: Growth inhibition of human NCI-H522 cells at 10 uM after 48 hrs by SRB assay relative to control; format: functional; conditions: NCI-H522, 48 h, read-out: GI
SR [12] = assay: Growth inhibition of human SR cells after 48 hrs by SRB assay; format: functional
[13] = Growth inhibition of human RXF393 cells after 48 hrs by SRB assay; format: functional; conditions: RXF 393, 48 h
[14] = Growth inhibition of human LOXIMVI cells after 48 hrs by SRB assay; format: functional; conditions: LOX IMVI
MDA-MB-468 = assay: Growth inhibition of human MDA-MB-468 cells after 48 hrs by SRB assay; format: functional; conditions: MDA-MB-468, 48 h
[15] = Growth inhibition of human Caki1 cells after 48 hrs by SRB assay; format: functional; conditions: CAKI-1, 48 h
[16] = Growth inhibition of human HOP92 cells after 48 hrs by SRB assay; format: functional; conditions: HOP-92, 48 h
SK-MEL-5 [17] = assay: Growth inhibition of human SK-MEL-5 cells at 10 uM after 48 hrs by SRB assay relative to control; format: functional; conditions: SK-MEL-5, 48 h, read-out: GI
CCRF-CEM = assay: Growth inhibition of human CCRF-CEM cells after 48 hrs by SRB assay; format: functional
K562 [18] = assay: Growth inhibition of human K562 cells after 48 hrs by SRB assay; format: functional; conditions: K562, 48 h
[19] = Growth inhibition of human SF539 cells at 10 uM after 48 hrs by SRB assay relative to control; format: functional; conditions: SF-539, 48 h, read-out: GI
[20] = Growth inhibition of human BT549 cells at 10 uM after 48 hrs by SRB assay relative to control; format: functional; conditions: BT-549, 48 h, read-out: GI
A498 [21] = assay: Growth inhibition of human A498 cells after 48 hrs by SRB assay; format: functional; conditions: A498, 48 h
SK-MEL-5 [22] = assay: Growth inhibition of human SK-MEL-5 cells after 48 hrs by SRB assay; format: functional; conditions: SK-MEL-5, 48 h
[23] = Growth inhibition of human BT549 cells after 48 hrs by SRB assay; format: functional; conditions: BT-549, 48 h
SK-MEL-28 = assay: Growth inhibition of human SK-MEL-28 cells after 48 hrs by SRB assay; format: functional; conditions: SK-MEL-28, 48 h
T47D = assay: Growth inhibition of human T47D cells at 10 uM after 48 hrs by SRB assay relative to control; format: functional; conditions: read-out: GI
[24] = Growth inhibition of human SW620 cells after 48 hrs by SRB assay; format: functional; conditions: SW-620, 48 h
[25] = Inhibition of sheep brain tubulin polymerization by DAPI staining-based fluorimetric method; set-up: species or system Ovis aries
[26] = Growth inhibition of human IGROV1 cells after 48 hrs by SRB assay; format: functional; conditions: IGROV-1, 48 h
K562 [27] = assay: Growth inhibition of human K562 cells at 10 uM after 48 hrs by SRB assay relative to control; format: functional; conditions: K562, 48 h, read-out: GI
786-0 = assay: Growth inhibition of human 786-0 cells at 10 uM after 48 hrs by SRB assay relative to control; format: functional; conditions: 786-0, 48 h, read-out: GI
[28] = Growth inhibition of human Caki1 cells at 10 uM after 48 hrs by SRB assay relative to control; format: functional; conditions: CAKI-1, 48 h, read-out: GI
[29] = Growth inhibition of human OVCAR4 cells at 10 uM after 48 hrs by SRB assay relative to control; format: functional; conditions: OVCAR-4, 48 h, read-out: GI
A549 = assay: Growth inhibition of human A549 cells after 48 hrs by SRB assay; format: functional; conditions: A549, 48 h
ACHN [30] = assay: Growth inhibition of human ACHN cells after 48 hrs by SRB assay; format: functional
SR [31] = assay: Growth inhibition of human SR cells at 10 uM after 48 hrs by SRB assay relative to control; format: functional; conditions: read-out: GI
NCI-H23 = assay: Growth inhibition of human NCI-H23 cells after 48 hrs by SRB assay; format: functional; conditions: NCI-H23, 48 h
[32] = Growth inhibition of human NCI-ADR-RES cells after 48 hrs by SRB assay; format: functional
A498 [33] = assay: Growth inhibition of human A498 cells at 10 uM after 48 hrs by SRB assay relative to control; format: functional; conditions: A498, 48 h, read-out: GI
[34] = Growth inhibition of human PC3 cells after 48 hrs by SRB assay; format: functional; conditions: PC-3, 48 h
MDA-MB-435 = assay: Growth inhibition of human MDA-MB-435 cells at 10 uM after 48 hrs by SRB assay relative to control; format: functional; conditions: MDA-MB-435, 48 h, read-out: GI

COc1ccc(C(=O)N2c3ccccc3Sc3ccccc32)cc1F
GI50 [1]: 418 nM
inhibition of growth at 10 µM (Malme-3M [2]): 45%
inhibition of growth at 10 µM [3]: 84%
GI50 (Malme-3M [4]): 365 nM
inhibition of growth at 10 µM [5]: 100%
GI50 (SN12C): 525 nM
GI50 [6]: 323 nM
inhibition of growth at 10 µM [7]: 95%
GI50 (U-251): 353 nM
inhibition of growth at 10 µM [8]: 45%
inhibition of growth at 10 µM [9]: 57%
inhibition of growth at 10 µM (NCI-H460): 96%
inhibition of growth at 10 µM [10]: 81%
inhibition of growth at 10 µM (ACHN [11]): 50%
inhibition of growth at 10 µM (HT-29): 100%
inhibition of growth at 10 µM (NCI-H522): 100%
GI50 (SR [12]): 162 nM
GI50 [13]: 211 nM
GI50 [14]: 672 nM
GI50 (MDA-MB-468): 231 nM
GI50 [15]: 465 nM
GI50 [16]: 1130 nM
inhibition of growth at 10 µM (SK-MEL-5 [17]): 93%
GI50 (CCRF-CEM): 287 nM
GI50 (K562 [18]): 110 nM
inhibition of growth at 10 µM [19]: 91%
inhibition of growth at 10 µM [20]: 83%
GI50 (A498 [21]): 219 nM
GI50 (SK-MEL-5 [22]): 443 nM
GI50 [23]: 439 nM
GI50 (SK-MEL-28): 320 nM
inhibition of growth at 10 µM (T47D): 49%
GI50 [24]: 282 nM
IC50 [25]: 11800 nM
GI50 [26]: 566 nM
inhibition of growth at 10 µM (K562 [27]): 82%
inhibition of growth at 10 µM (786-0): 64%
inhibition of growth at 10 µM [28]: 48%
inhibition of growth at 10 µM [29]: 59%
GI50 (A549): 344 nM
GI50 (ACHN [30]): 1050 nM
inhibition of growth at 10 µM (SR [31]): 75%
GI50 (NCI-H23): 340 nM
GI50 [32]: 200 nM

COc1ccc(C(=O)N2c3ccccc3Sc3ccccc32)c(OC)c1
GI50 [1]: 10000 nM
inhibition of growth at 10 µM (Malme-3M [2]): 33%
inhibition of growth at 10 µM [3]: 100%
inhibition of growth at 10 µM (A498 [33]): 95%
GI50 (Malme-3M [4]): 416 nM
inhibition of growth at 10 µM [5]: 100%
GI50 (SN12C): 586 nM
GI50 [6]: 447 nM
inhibition of growth at 10 µM [7]: 90%
GI50 (U-251): 615 nM
inhibition of growth at 10 µM [8]: 69%
inhibition of growth at 10 µM [9]: 52%
inhibition of growth at 10 µM (NCI-H460): 90%
inhibition of growth at 10 µM [10]: 82%
inhibition of growth at 10 µM (ACHN [11]): 57%
inhibition of growth at 10 µM (HT-29): 100%
inhibition of growth at 10 µM (NCI-H522): 100%
GI50 [34]: 430 nM
GI50 (SR [12]): 562 nM
GI50 [13]: 413 nM
GI50 [14]: 601 nM
GI50 (MDA-MB-468): 327 nM
GI50 [15]: 574 nM
GI50 [16]: 374 nM
inhibition of growth at 10 µM (SK-MEL-5 [17]): 81%
GI50 (CCRF-CEM): 394 nM
GI50 (K562 [18]): 381 nM
inhibition of growth at 10 µM (MDA-MB-435): 100%
inhibition of growth at 10 µM [19]: 100%
inhibition of growth at 10 µM [20]: 83%
GI50 (A498 [21]): 307 nM
GI50 (SK-MEL-5 [22]): 408 nM
GI50 [23]: 659 nM
GI50 (SK-MEL-28): 942 nM
inhibition of growth at 10 µM (T47D): 59%
GI50 [24]: 412 nM
GI50 [26]: 926 nM
inhibition of growth at 10 µM (K562 [27]): 89%
inhibition of growth at 10 µM (786-0): 71%
inhibition of growth at 10 µM [28]: 63%
inhibition of growth at 10 µM [29]: 43%
GI50 (A549): 785 nM
GI50 (ACHN [30]): 726 nM
inhibition of growth at 10 µM (SR [31]): 78%
GI50 (NCI-H23): 776 nM
GI50 [32]: 400 nM

O=C(c1ccc2c(c1)Sc1ccccc1N2)c1c[nH]c2ccccc12
GI50 [1]: 565 nM
inhibition of growth at 10 µM (Malme-3M [2]): 49%
inhibition of growth at 10 µM [3]: 91%
inhibition of growth at 10 µM (A498 [33]): 92%
GI50 (Malme-3M [4]): 532 nM
inhibition of growth at 10 µM [5]: 100%
GI50 (SN12C): 708 nM
GI50 [6]: 642 nM
inhibition of growth at 10 µM [7]: 91%
GI50 (U-251): 413 nM
inhibition of growth at 10 µM [8]: 28%
inhibition of growth at 10 µM [9]: 60%
inhibition of growth at 10 µM (NCI-H460): 90%
inhibition of growth at 10 µM [10]: 100%
inhibition of growth at 10 µM (ACHN [11]): 45%
inhibition of growth at 10 µM (HT-29): 99%
inhibition of growth at 10 µM (NCI-H522): 100%
GI50 [34]: 544 nM
GI50 (SR [12]): 173 nM
GI50 [13]: 510 nM
GI50 (MDA-MB-468): 301 nM
GI50 [15]: 359 nM
GI50 [16]: 585 nM
inhibition of growth at 10 µM (SK-MEL-5 [17]): 89%
GI50 (CCRF-CEM): 328 nM
GI50 (K562 [18]): 310 nM
inhibition of growth at 10 µM [19]: 100%
inhibition of growth at 10 µM [20]: 69%
GI50 (A498 [21]): 172 nM
GI50 (SK-MEL-5 [22]): 452 nM
GI50 [23]: 366 nM
GI50 (SK-MEL-28): 630 nM
inhibition of growth at 10 µM (T47D): 72%
GI50 [24]: 293 nM
IC50 [25]: 38900 nM
GI50 [26]: 683 nM
inhibition of growth at 10 µM (K562 [27]): 81%
inhibition of growth at 10 µM (786-0): 50%
inhibition of growth at 10 µM [28]: 66%
inhibition of growth at 10 µM [29]: 39%
GI50 (A549): 592 nM
GI50 (ACHN [30]): 671 nM
inhibition of growth at 10 µM (SR [31]): 76%
GI50 (NCI-H23): 389 nM
GI50 [32]: 317 nM
